Laboratory results from the supplement of paper PMC4858399.

Columns and labels:
Conditions in all cases: exposure time 48 h
[1] = test system: Caenorhabditis elegans N2; assay: mean nematode size ln(EXT) after 48 h, plate-adjusted (DMSO control set to 6) (ln(EXT), control-adjusted); higher = larger nematodes / less growth inhibition
Method in brief: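 Chemical at 0.5–200 µM was tested on synchronised C. elegans N2 L1 larvae grown for 48 h at 20°C in K-medium with killed OP50 and 1% DMSO. Per-worm Biosort extinction, cleared of debris by a growth model, was natural-logged and averaged per well to give mean size. Plates were normalised by subtracting the vehicle control mean and adding 6.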

[2] = test system: Caenorhabditis elegans N2; assay: lowest effective concentration for larval growth inhibition (size below effect threshold); higher = less potent
Method in brief: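 Each well of a 96-well plate received 50 C. elegans N2 L1 larvae, which grew for 48 h at 20°C in K-medium containing killed bacteria, 1% DMSO and the chemical at 0.5, 1, 5, 10, 50, 100 or 200 µM. A Biosort recorded the extinction of every worm as its size, and these readings were log-transformed and averaged per well. The lowest effective concentration is defined as the first dose at which the plate-adjusted mean size falls below the threshold and stays below it at all higher doses; that threshold is 5.665.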

[3] = test system: Caenorhabditis elegans N2; assay: AC50 for larval growth inhibition (Hill fit); higher = less potent
Method in brief: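 Synchronised C. elegans N2 L1 larvae, 50 per well in 96-well plates, were grown at 20°C for 48 h in K-medium with killed OP50, 1% DMSO and 0.5–200 µM chemical. Worm size was read on a COPAS Biosort as extinction, log-transformed and averaged per well, and only wells holding at least 10 worms were kept. AC50 was obtained by a constrained Hill fit using weighted genetic-algorithm regression, with out-of-range values censored.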

Structure (SMILES) | mean nematode size ln(EXT) (ln) ([1]; 0.5 µM) | mean nematode size ln(EXT) (ln) ([1]; 1 µM) | mean nematode size ln(EXT) (ln) ([1]; 5 µM) | mean nematode size ln(EXT) (ln) ([1]; 10 µM) | mean nematode size ln(EXT) (ln) ([1]; 50 µM) | mean nematode size ln(EXT) (ln) ([1]; 100 µM) | mean nematode size ln(EXT) (ln) ([1]; 200 µM) | lowest effective concentration [2] [µM] | AC50 for larval growth inhibition [3] [µM]
Cc1ccc(-c2c(Cl)nc(C#N)n2S(=O)(=O)N(C)C)cc1 [Cyazofamid] | 5.91 | 5.91 | 5.88 | 6.02 | 5.84 | 5.29 | 4.91 | 100 | 60.5
Cc1ccc(N)cc1N [2,4-Diaminotoluene] | 5.86 | 5.94 | 5.9 | 5.74 | 5.89 | 5.72 | 5.5 | 200 | > 200
Clc1cccc(C(Cl)(Cl)Cl)n1 [Nitrapyrin] | 5.36 | 5.48 | 5.3 | 5.47 | 5.92 | 5.54 | 4.05 | 100 | 108
CCCCOCN(C(=O)CCl)c1c(CC)cccc1CC [Butachlor] | 5.93 | 6.1 | 6.07 | 6.12 | 6.05 | 6.08 | 5.44 | 200 | 13.8
COC(=O)[C@H]1[C@H]2C[C@@H]3c4[nH]c5cc(OC)ccc5c4CCN3C[C@H]2C[C@@H](OC(=O)c2cc(OC)c(OC)c(OC)c2)[C@@H]1OC [Reserpine] | 5.86 | 5.87 | 5.74 | 5.66 | 5.04 | 4.95 | 5.17 | 10 | 12.6
CS/C(C)=N\OC(=O)N(C)SN(C)C(=O)O/N=C(\C)SC [Thiodicarb] | 5.54 | 5.83 | 5.32 | 5.34 | 4.27 | 3.74 | 3.51 | 5 | 28.4
c1ccc(-c2ccccc2)cc1 [Biphenyl] | 5.85 | 5.87 | 5.9 | 5.96 | 5.92 | 5.74 | 3.88 | 200 | 164
C1CCC(SSC2CCCCC2)CC1 [Dicyclohexyl disulfide] | 5.76 | 5.82 | 5.78 | 5.74 | 5.65 | 5.62 | 5.44 | 50 | > 200
CSc1nc(NC(C)C)nc(NC(C)C)n1 [Prometryn] | 5.83 | 5.76 | 5.87 | 6 | 5.79 | 5.86 | 5.37 | 200 | > 200
CCOc1cc(C(C)(C)C)ccc1C1COC(c2c(F)cccc2F)=N1 (configuration not stated) [Etoxazole] | 5.74 | 5.16 | 4.48 | 4.32 | 4.37 | 3.91 | 3.44 | 1 | 2.3
CNC(=S)S [Metam-sodium hydrate] | 6.25 | 6.2 | 6.21 | 6.3 | 6.43 | 6.13 | 5.52 | 200 | 191
O=C(O)C(F)(F)C(F)(F)C(F)(F)C(F)(F)C(F)(F)C(F)(F)C(F)(F)C(F)(F)C(F)(F)C(F)(F)F [Perfluoroundecanoic acid] | 5.8 | 5.77 | 4.55 | 3.95 | 3.63 | 3.64 | 3.2 | 5 | 4.14
O=C(CCl)c1ccccc1 [2-Chloroacetophenone] | 5.82 | 5.84 | 5.82 | 5.48 | 5.82 | 5.8 | 4.95 | 200 | > 200
CCC(C)(C)c1ccc(O)cc1 [4-(2-methylbutan-2-yl)phenol] | 5.8 | 5.81 | 5.74 | 5.76 | 5.75 | 5.92 | 4.97 | 200 | > 200
Cc1ccc(Cl)cc1 [4-Chlorotoluene] | 5.8 | 5.74 | 5.72 | 5.77 | 5.8 | 5.63 | 5.37 | 100 | > 200
CC(C)(C)OOC(C)(C)C [Di-tert-butyl peroxide] | 5.88 | 5.88 | 5.96 | 5.83 | 5.59 | 5.79 | 5.31 | 200 | > 200
O=c1[nH]sc2ccccc12 [1,2-Benzisothiazolin-3-one] | 5.72 | 5.71 | 5.73 | 5.74 | 5.69 | 5.5 | 5.48 | 100 | > 200
Cc1cc(N=Nc2ccccc2C)ccc1N [Fast Garnet GBC base] | 5.83 | 5.71 | 5.55 | 5.5 | 3.45 | 3.57 | 3.77 | 5 | 14.9
